Here are results for four compounds from US20160304959A1, “COMPOSITIONS AND METHODS FOR TREATING DIABETIC NEPHROPATHY” (Rush University Medical Center, priority 2013, published 2016).

Experiment [1] concerns WT and miR-146a KO DN mice. The experiment in a line: TEM of kidney sections for podocyte foot process effacement after STZ. It counts as in vivo, mouse. On the procedure:
We also analyzed the kidney sections using transmission electron microscopy (TEM) to determine if erlotinib treatment provided protection of podocytes from foot process effacement. TEM was performed according to the standard protocols (Sever, S. et al. J Clin. Invest. 117, 2095-2104 (2007)).

Experiment [2] relates to DN prone miR-146a KO animals. In words: STZ-induced diabetic nephropathy in miR-146a KO animals, albuminuria. Type of experiment: in vivo, mouse. Particulars: miR-146a KO + STZ mice, 70 mg/kg I.P. daily from 4 weeks post-STZ. On the procedure:
We investigated the role of miR-146 in diabetic nephropathy (DN) using the miR-146a KO animals and a DN mouse model. Streptozotocin (STZ) treatment (125 mg/kg, two doses 3 days apart) induced similar levels of hyperglycemia in both WT and miR146a KO animals (FIG. 7).
To determine if inhibiting ErbB4 using ErbB4 erlotinib would be beneficial and protect animals from DN, we administered Erlotinib (70 mg/kg in saline/Kolliphor, Tween, I.P., daily) in DN prone miR-146a KO animals starting at 4 weeks post-STZ.

The target of a further experiment is ErbB4 (Homo sapiens, UniProt Q15303). Particulars: cited from earlier work; for Affinity and selectivity for ErbB4 versus EGFR: pan-ErbB inhibitors; for Inhibition of ErbB4 (affinity): ref. 77 for JNJ.
Sequence of ErbB4 (Q15303 26-1308): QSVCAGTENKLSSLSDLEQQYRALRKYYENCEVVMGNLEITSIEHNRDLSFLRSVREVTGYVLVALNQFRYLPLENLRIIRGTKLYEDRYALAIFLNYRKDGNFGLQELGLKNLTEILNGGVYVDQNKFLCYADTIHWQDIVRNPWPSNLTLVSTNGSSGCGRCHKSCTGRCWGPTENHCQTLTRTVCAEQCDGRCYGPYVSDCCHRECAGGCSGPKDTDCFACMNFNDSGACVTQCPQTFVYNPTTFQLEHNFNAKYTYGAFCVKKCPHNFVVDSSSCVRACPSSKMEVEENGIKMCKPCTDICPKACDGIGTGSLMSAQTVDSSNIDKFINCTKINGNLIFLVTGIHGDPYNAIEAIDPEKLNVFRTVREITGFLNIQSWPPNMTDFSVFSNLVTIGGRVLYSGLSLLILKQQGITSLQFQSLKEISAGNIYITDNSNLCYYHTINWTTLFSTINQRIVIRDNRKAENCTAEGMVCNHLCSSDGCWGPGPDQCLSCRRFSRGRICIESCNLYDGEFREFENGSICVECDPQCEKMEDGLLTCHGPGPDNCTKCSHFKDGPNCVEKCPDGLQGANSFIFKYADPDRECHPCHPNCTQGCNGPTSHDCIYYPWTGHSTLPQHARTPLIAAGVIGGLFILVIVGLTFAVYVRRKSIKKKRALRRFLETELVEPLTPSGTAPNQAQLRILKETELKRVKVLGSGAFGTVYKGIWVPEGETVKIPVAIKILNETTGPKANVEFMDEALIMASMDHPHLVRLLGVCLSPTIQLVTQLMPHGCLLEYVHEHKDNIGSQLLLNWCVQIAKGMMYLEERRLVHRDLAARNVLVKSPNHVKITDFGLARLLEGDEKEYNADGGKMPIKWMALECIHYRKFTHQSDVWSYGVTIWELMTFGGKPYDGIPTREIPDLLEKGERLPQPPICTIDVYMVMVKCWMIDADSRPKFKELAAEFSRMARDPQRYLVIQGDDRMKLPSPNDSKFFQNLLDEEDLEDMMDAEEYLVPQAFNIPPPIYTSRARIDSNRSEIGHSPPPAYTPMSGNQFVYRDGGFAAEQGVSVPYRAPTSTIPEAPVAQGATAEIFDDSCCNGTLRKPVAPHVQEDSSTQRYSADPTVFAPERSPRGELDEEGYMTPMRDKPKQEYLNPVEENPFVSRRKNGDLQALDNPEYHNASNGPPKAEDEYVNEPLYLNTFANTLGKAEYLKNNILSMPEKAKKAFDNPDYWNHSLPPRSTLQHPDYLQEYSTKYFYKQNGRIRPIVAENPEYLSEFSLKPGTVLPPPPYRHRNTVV
Another experiment relates to podocytes. The experiment in a line: Podocytes treated with TGFβ and co-treated with ErbB4 inhibitor (qRT-PCR, immunofluorescence). It counts as cell-based, mouse. Particulars: podocytes treated with TGFb plus inhibitor, 2 h. As for the experimental part:
FIG. 5A is a bar graph showing qRT-PCR based analysis of levels of various RNAs in podocytes cultured in normal glucose (5 mM) v/s treatment with HG (30 mM) for 2 h or 24 h (Notch-1). FIG. 5B is a bar graph showing qRT-PCR based analysis of levels of various RNAs in podocytes cultured in normal media or treated with TGFb in the absence or presence of ErbB4 inhibitor (JNJ) for 2 h. FIG. 5C provides representative immunofluorescence images showing podocytes cultured in normal media or treated with TGFb in the absence or presence of ErbB4 inhibitor (JNJ) for 2 h and stained for paxillin, synpo or ErbB4.
A general note: In qPCR the cycle at which signal appears reflects the starting amount.

As for `C#Cc1cccc(Nc2ncnc3cc(OCCOC)c(OCCOC)cc23)c1` [Erlotinib], the “Podocyte foot process effacement (TEM)” value in experiment [1] (WT mice after STZ) and in experiment [1] (miR-146a KO DN mice) was “significantly reduced podocyte foot process effacement” each time. The “Proteinuria (albuminuria)” value in experiment [2] is “significantly reduced proteinuria (albuminuria)”. Further, at ErbB4, the “Affinity and selectivity for ErbB4 versus EGFR” value (from here on “Affinity and selectivity”) is “high affinity and selectivity for ErbB4”.

As to `Cl.Nc1ncnc(Nc2ccc(OCc3ccccc3)c(Cl)c2)c1/C=N/OCCN1CCOCC1` [JNJ28871063], at ErbB4, the “Affinity and selectivity” value was “high affinity and selectivity for ErbB4”; the “Inhibition of ErbB4 (affinity)” value was “nanomolar affinity”. Besides, in the experiment with podocytes, the “Reversal of deleterious expression changes induced by TGFβ (mRNA and protein level)” value is recorded as “reversed the deleterious expression changes induced by TGFβ”.

Consider `CS(=O)(=O)CCNCc1ccc(-c2ccc3ncnc(Nc4ccc(OCc5cccc(F)c5)c(Cl)c4)c3c2)o1` [Lapatinib], for which, on ErbB4, the “Affinity and selectivity” value is “much more effective against EGFR v/s ErbB4”; the “Inhibition of ErbB4 (affinity)” value is “only weakly effective on ErbB4”. For the same compound, the “Reversal of deleterious expression changes induced by TGFβ (mRNA and protein level)” value with podocytes is recorded as “less effective”.

For `CNc1cc2c(Nc3cccc(Br)c3)ncnc2cn1` [PD158780], the “Affinity and selectivity” value at ErbB4 was “high affinity and selectivity for ErbB4”.
